According to patent US20070203121A1, “SUBSTITUTED INDOLE COMPOUNDS, THEIR PREPARATION AND USE IN MEDICAMENTS” (LABORATORIOS DEL DR. ESTEVE S.A, priority 2004, published 2007):
pKi: −log10 of the molar value.

Target: T1, 5HT6-human recombinant receptor (Homo sapiens, UniProt P50406)
T1 construct: purchased Receptor Biology; host or cells: HEK-293 cells (membranes)
Experiment: Binding to Serotonin Receptor 5-HT6 ([3H]-LSD displacement)
Details: membranes of HEK-293 cells expressing the receptor; radioligand [3H]-LSD 2.7 nM; 60 minutes at 37° C.; triplicate
Method: I) Binding to Serotonin Receptor 5-HT6
Cell membranes of HEK-293 cells expressing the 5HT6-human recombinant receptor were supplied by Receptor Biology. In said membranes the receptor concentration is 2.18 pmol/mg protein and the protein concentration is 9.17 mg/ml. The experimental protocol follows the method of B. L. Roth et al. [B. L. Roth, S. C. Craigo, M. S. Choudhary, A. Uluer, F. J. Monsma, Y. Shen, H. Y. Meltzer, D. R. Sibley: Binding of Typical and Atypical Antipsychotic Agents to 5-Hydroxytryptamine-6 and Hydroxytryptamine-7 Receptors. The Journal of Pharmacology and Experimental Therapeutics, 1994, 268, 1403] with the following slight changes. The respective part of the literature description is hereby incorporated by reference and forms part of the disclosure.
The commercial membrane is diluted (1:40 dilution) with the binding buffer: 50 mM Tris-HCl, 10 mM MgCl2, 0.5 mM EDTA (pH 7.4). The radioligand used is [^3H]-LSD at a concentration of 2.7 nM with a final volume of 200 μl. Incubation is initiated by adding 100 μl of membrane suspension, (≈22.9 μg membrane protein), and is prolonged for 60 minutes at a temperature of 37° C. The incubation is ended by fast filtration in a Brandel Cell Harvester through fiber glass filters made by Schleicher & Schuell GF 3362 pretreated with a solution of polyethylenimine at 0.5%. The filters are washed three times with three milliliters of buffer Tris-HCl 50 mM pH 7.4. The filters are transferred to flasks and 5 ml of Ecoscint H liquid scintillation cocktail are added to each flask. The flasks are allowed to reach equilibrium for several hours before counting with a Wallac Winspectral 1414 scintillation counter. Non-specific binding is determined in the presence of 100 μM of serotonin. Tests were made in triplicate. The inhibition constants (Ki, nM) were calculated by non-linear regression analysis using the program EBDA/LIGAND described in Munson and Rodbard, Analytical Biochemistry, 1980, 107, 220, the respective part of which is hereby incorporated by reference and forms part of the disclosure.
The binding of the substituted indole compounds to the 5-HT6 receptor was determined as described above.

T1 sequence (P50406 whole entry): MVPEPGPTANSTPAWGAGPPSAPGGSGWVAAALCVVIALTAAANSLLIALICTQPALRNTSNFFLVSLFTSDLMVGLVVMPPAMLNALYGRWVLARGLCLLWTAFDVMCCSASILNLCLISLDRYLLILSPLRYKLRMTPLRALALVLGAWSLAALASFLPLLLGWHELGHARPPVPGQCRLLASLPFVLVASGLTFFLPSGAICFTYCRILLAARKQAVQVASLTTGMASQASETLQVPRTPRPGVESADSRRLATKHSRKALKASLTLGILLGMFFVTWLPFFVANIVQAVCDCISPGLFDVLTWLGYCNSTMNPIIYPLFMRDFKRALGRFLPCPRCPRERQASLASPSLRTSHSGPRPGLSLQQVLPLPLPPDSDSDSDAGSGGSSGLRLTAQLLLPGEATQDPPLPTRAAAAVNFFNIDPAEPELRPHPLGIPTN

Row | Structure (SMILES) | pKi
1 | CCN(CC)C(=O)C(=O)c1c[nH]c2ccc(NS(=O)(=O)c3c(Cl)nc4sccn34)cc12 [Example 9, 2-[5-(6-Chloro-imidazo[2,1-b]thiazole-5-sulfonylamino)-1H-indol-3-yl]-N,N-diethyl-2-oxo-acetamide] | 6.65
2 | CN(C)C(=O)C(=O)c1c[nH]c2ccc(NS(=O)(=O)c3c(Cl)nc4sccn34)cc12 [Example 10, 2-[5-(6-Chloro-imidazo[2,1-b]thiazole-5-sulfonylamino)-1H-indol-3-yl]-N,N-dimethyl-2-oxo-acetamide] | 7.74
3 | CN(C)C(=O)C(=O)c1c[nH]c2cccc(NS(=O)(=O)c3c(Cl)nc4sccn34)c12 [Example 13, 2-[4-(6-Chloro-imidazo[2,1-b]thiazole-5-sulfonylamino)-1H-indol-3-yl]-N,N-dimethyl-2-oxo-acetamide] | 6.79
4 | CN(C)C(=O)C(=O)c1c[nH]c2ccc(NS(=O)(=O)c3ccc(Oc4ccccc4)cc3)cc12 [Example 20, N,N-Dimethyl-2-[5-[(4-phenoxy-phenyl)-1-sulfonylamino]-1H-indol-3-yl]-2-oxo-acetamide] | 6.95
5 | Cc1[nH]c2ccc(NS(=O)(=O)c3c(Cl)nc4sccn34)cc2c1C(=O)C(=O)N(C)C [Example 22, 2-(5-(6-chloroimidazo[2,1-b]thiazole-5-sulfonamido)-2-methyl-1H-indol-3-yl)-N,N-dimethyl-2-oxoacetamide] | 7.28
